The source of these data is the supplement of paper PMC10307832.

Holding throughout (test): relative viability (nuclei count vs DMSO), 5 days (fraction); higher = more cells survive
Compound in test [1]: C1COCCN1C2=NC(=NC3=C2OC4=C3C=CC=N4)C5=CC(=CC=C5)NC(=O)C6=CN=C(C=C6)N + CS(=O)(=O)CCNCc1ccc(-c2ccc3ncnc(Nc4ccc(OCc5cccc(F)c5)c(Cl)c4)c3c2)o1 [Lapatinib] (partner 2 µM)
In outline:
(§1)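 One day after seeding in 1536-well plates, lung cancer cell lines were dosed by pin tool. Dosing was either single-drug or a fixed anchor-drug dose plus five library-drug doses (not always all listed) in √10 steps. After 5 days, nuclei were stained in one fix-and-stain step and counted on 4× images, and relative viability is the nuclei count of treated wells over that of vehicle wells, given as the median of duplicate plates.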

Compound in test [2]: C1COCCN1C2=NC(=NC3=C2OC4=C3C=CC=N4)C5=CC(=CC=C5)NC(=O)C6=CN=C(C=C6)N + Nc1nc2[nH]cc(CCc3ccc(C(=O)N[C@@H](CCC(=O)O)C(=O)O)cc3)c2c(=O)[nH]1 [Pemetrexed] (partner 0.2 µM)
In outline:
as §1

Compound in the test “SGI-1776 + Trametinib”: CN1CCC(CNc2ccc3ncc(-c4cccc(OC(F)(F)F)c4)n3n2)CC1 [SGI-1776] + CC(=O)Nc1cccc(-n2c(=O)n(C3CC3)c(=O)c3c(Nc4ccc(I)cc4F)n(C)c(=O)c(C)c32)c1 [Trametinib] (partner 0.02 µM)
In outline: as §1

Compound in the test “Entinostat + Tozasertib”: Nc1ccccc1NC(=O)c1ccc(CNC(=O)OCc2cccnc2)cc1 [Entinostat] + Cc1cc(Nc2cc(N3CCN(C)CC3)nc(Sc3ccc(NC(=O)C4CC4)cc3)n2)n[nH]1 [Tozasertib] (partner 0.1 µM)
Put shortly: as §1

UMC-11: the relative viability is 0.927 in test [1] (first compound 0.02 µM); 1.09 in test [1] (first compound 0.06325 µM); 0.918 in test [1] (first compound 0.2 µM); 1.06 in test [1] (first compound 0.6325 µM); 0.822 in test [1] (first compound 2 µM); 0.772 in test [2] (first compound 0.02 µM). The relative viability in test [2] (first compound 0.06325 µM) stood at 0.827; in test [2] (first compound 0.2 µM) it was 0.694; in test [2] (first compound 0.6325 µM), 0.814; in test [2] (first compound 2 µM) it was 0.445; in the test with SGI-1776 + Trametinib (first compound 0.08 µM), 0.719; with SGI-1776 + Trametinib (first compound 0.8 µM), 0.684. In addition, the relative viability with SGI-1776 + Trametinib (first compound 2.53 µM) worked out at 0.787; with SGI-1776 + Trametinib (first compound 8 µM), 0.432; with Entinostat + Tozasertib (first compound 0.02 µM) it was 0.218; with Entinostat + Tozasertib (first compound 0.06325 µM), 0.201; with Entinostat + Tozasertib (first compound 0.2 µM) it was 0.206; with Entinostat + Tozasertib (first compound 0.6325 µM), 0.192. For the same cell line, in the test with Entinostat + Tozasertib (first compound 2 µM), the relative viability was 0.163.
